Paper PMC11420776 (RSC Advances, 2024)

Legend:
LOX IMIV (melanoma) = experiment: NCI 60-cell one-dose antiproliferative screen; type: cell-based, human; details: one dose 10 μM
[1] = system: MDA-MB-468 (breast cancer); experiment: NCI 60-cell one-dose antiproliferative screen; type: cell-based, human; details: one dose 10 μM
UO-31 (renal cancer) = experiment: NCI 60-cell one-dose antiproliferative screen; type: cell-based, human; details: one dose 10 μM
SNB-19 (CNS cancer) = experiment: NCI 60-cell one-dose antiproliferative screen; type: cell-based, human; details: one dose 10 μM
SK-MEL-28 (melanoma) = experiment: NCI 60-cell one-dose antiproliferative screen; type: cell-based, human; details: one dose 10 μM
ACHN (renal cancer) = experiment: NCI 60-cell one-dose antiproliferative screen; type: cell-based, human; details: one dose 10 μM
HCT-15 (colon cancer) = experiment: NCI 60-cell one-dose antiproliferative screen; type: cell-based, human; details: one dose 10 μM
HCC-2998 (colon cancer) = experiment: NCI 60-cell one-dose antiproliferative screen; type: cell-based, human; details: one dose 10 μM
[2] = system: NCI-H226 (NSC lung cancer); experiment: NCI 60-cell one-dose antiproliferative screen; type: cell-based, human; details: one dose 10 μM
MALME-3M (melanoma) = experiment: NCI 60-cell one-dose antiproliferative screen; type: cell-based, human; details: one dose 10 μM
SK-OV-3 (ovarian cancer) = experiment: NCI 60-cell one-dose antiproliferative screen; type: cell-based, human; details: one dose 10 μM
[3] = system: MDA-MB-231/ATCC (breast cancer); experiment: NCI 60-cell one-dose antiproliferative screen; type: cell-based, human; details: one dose 10 μM
OVCAR-3 (ovarian cancer) = experiment: NCI 60-cell one-dose antiproliferative screen; type: cell-based, human; details: one dose 10 μM
UACC-257 (melanoma) = experiment: NCI 60-cell one-dose antiproliferative screen; type: cell-based, human; details: one dose 10 μM
SNB-75 (CNS cancer) = experiment: NCI 60-cell one-dose antiproliferative screen; type: cell-based, human; details: one dose 10 μM
SN12C (renal cancer) = experiment: NCI 60-cell one-dose antiproliferative screen; type: cell-based, human; details: one dose 10 μM
DU-145 (prostate cancer) = experiment: NCI 60-cell one-dose antiproliferative screen; type: cell-based, human; details: one dose 10 μM
CCRF-CEM (leukemia) = experiment: NCI 60-cell one-dose antiproliferative screen; type: cell-based, human; details: one dose 10 μM
[4] = system: NCI-H460 (NSC lung cancer); experiment: NCI 60-cell one-dose antiproliferative screen; type: cell-based, human; details: one dose 10 μM
[5] = system: NCI-H23 (NSC lung cancer); experiment: NCI 60-cell one-dose antiproliferative screen; type: cell-based, human; details: one dose 10 μM
MCF7 (breast cancer) = experiment: NCI 60-cell one-dose antiproliferative screen; type: cell-based, human; details: one dose 10 μM
[6] = system: NCI-H522 (NSC lung cancer); experiment: NCI 60-cell one-dose antiproliferative screen; type: cell-based, human; details: one dose 10 μM
SF-295 (CNS cancer) = experiment: NCI 60-cell one-dose antiproliferative screen; type: cell-based, human; details: one dose 10 μM
RPMI-8226 (leukemia) = experiment: NCI 60-cell one-dose antiproliferative screen; type: cell-based, human; details: one dose 10 μM
OVCAR-5 (ovarian cancer) = experiment: NCI 60-cell one-dose antiproliferative screen; type: cell-based, human; details: one dose 10 μM
IGROV1 (ovarian cancer) = experiment: NCI 60-cell one-dose antiproliferative screen; type: cell-based, human; details: one dose 10 μM
EKVX (NSC lung cancer) = experiment: NCI 60-cell one-dose antiproliferative screen; type: cell-based, human; details: one dose 10 μM
TK-10 (renal cancer) = experiment: NCI 60-cell one-dose antiproliferative screen; type: cell-based, human; details: one dose 10 μM
786-0 (renal cancer) = experiment: NCI 60-cell one-dose antiproliferative screen; type: cell-based, human; details: one dose 10 μM
CAKI-1 (renal cancer) = experiment: NCI 60-cell one-dose antiproliferative screen; type: cell-based, human; details: one dose 10 μM
HCT-116 (colon cancer) = experiment: NCI 60-cell one-dose antiproliferative screen; type: cell-based, human; details: one dose 10 μM
A498 (renal cancer) = experiment: NCI 60-cell one-dose antiproliferative screen; type: cell-based, human; details: one dose 10 μM
OVCAR-8 (ovarian cancer) = experiment: NCI 60-cell one-dose antiproliferative screen; type: cell-based, human; details: one dose 10 μM
OVCAR-4 (ovarian cancer) = experiment: NCI 60-cell one-dose antiproliferative screen; type: cell-based, human; details: one dose 10 μM
HT29 (colon cancer) = experiment: NCI 60-cell one-dose antiproliferative screen; type: cell-based, human; details: one dose 10 μM
RXF 393 (renal cancer) = experiment: NCI 60-cell one-dose antiproliferative screen; type: cell-based, human; details: one dose 10 μM
M14 (melanoma) = experiment: NCI 60-cell one-dose antiproliferative screen; type: cell-based, human; details: one dose 10 μM
[7] = system: A549/ATCC (NSC lung cancer); experiment: NCI 60-cell one-dose antiproliferative screen; type: cell-based, human; details: one dose 10 μM
SK-MEL-2 (melanoma) = experiment: NCI 60-cell one-dose antiproliferative screen; type: cell-based, human; details: one dose 10 μM
[8] = system: 60 human tumor cell lines; experiment: NCI 60-cell one-dose antiproliferative screen, whole panel; type: cell-based; details: Homo sapiens, 60 cell, read-out: Mean inhibition (mean GI%)
SF-539 (CNS cancer) = experiment: NCI 60-cell one-dose antiproliferative screen; type: cell-based, human; details: one dose 10 μM
SF-268 (CNS cancer) = experiment: NCI 60-cell one-dose antiproliferative screen; type: cell-based, human; details: one dose 10 μM
KM12 (colon cancer) = experiment: NCI 60-cell one-dose antiproliferative screen; type: cell-based, human; details: one dose 10 μM
COLO-205 (colon cancer) = experiment: NCI 60-cell one-dose antiproliferative screen; type: cell-based, human; details: one dose 10 μM
MDA-MB-435 (melanoma) = experiment: NCI 60-cell one-dose antiproliferative screen; type: cell-based, human; details: one dose 10 μM
T-47D (breast cancer) = experiment: NCI 60-cell one-dose antiproliferative screen; type: cell-based, human; details: one dose 10 μM
HOP-62 (NSC lung cancer) = experiment: NCI 60-cell one-dose antiproliferative screen; type: cell-based, human; details: one dose 10 μM
HOP-92 (NSC lung cancer) = experiment: NCI 60-cell one-dose antiproliferative screen; type: cell-based, human; details: one dose 10 μM
[9] = system: NCI-H322M (NSC lung cancer); experiment: NCI 60-cell one-dose antiproliferative screen; type: cell-based, human; details: one dose 10 μM
[10] = system: NCI/ADR-RES (ovarian cancer); experiment: NCI 60-cell one-dose antiproliferative screen; type: cell-based, human; details: one dose 10 μM
U251 (CNS cancer) = experiment: NCI 60-cell one-dose antiproliferative screen; type: cell-based, human; details: one dose 10 μM
PC-3 (prostate cancer) = experiment: NCI 60-cell one-dose antiproliferative screen; type: cell-based, human; details: one dose 10 μM
UACC-62 (melanoma) = experiment: NCI 60-cell one-dose antiproliferative screen; type: cell-based, human; details: one dose 10 μM
HS 578T (breast cancer) = experiment: NCI 60-cell one-dose antiproliferative screen; type: cell-based, human; details: one dose 10 μM
SW-620 (colon cancer) = experiment: NCI 60-cell one-dose antiproliferative screen; type: cell-based, human; details: one dose 10 μM

CN(C)c1ccc(C=NNc2ccc3nnc(-c4ccccc4)n3n2)cc1 [Compound 4c, N,N-Dimethyl-4-((2-(3-phenyl-[1,2,4]triazolo[4,3-b]pyridazin-6-yl)hydrazono)methyl)aniline]
GI% (LOX IMIV (melanoma)): 62.55% | GI% [1]: — (— GI% is below 15%) | GI% (UO-31 (renal cancer)): 18.89% | GI% (SNB-19 (CNS cancer)): 30.50% | GI% (SK-MEL-28 (melanoma)): — (— GI% is below 15%) | GI% (ACHN (renal cancer)): 21.61% | GI% (HCT-15 (colon cancer)): 19.56% | GI% (HCC-2998 (colon cancer)): — (— GI% is below 15%) | GI% [2]: — (— GI% is below 15%) | GI% (MALME-3M (melanoma)): — (— GI% is below 15%) | GI% (SK-OV-3 (ovarian cancer)): — (— GI% is below 15%) | GI% [3]: — (— GI% is below 15%) | GI% (OVCAR-3 (ovarian cancer)): 34.65% | GI% (UACC-257 (melanoma)): — (— GI% is below 15%) | GI% (SNB-75 (CNS cancer)): 65.40% | GI% (SN12C (renal cancer)): — (— GI% is below 15%) | GI% (DU-145 (prostate cancer)): 26.64% | GI% (CCRF-CEM (leukemia)): — (— GI% is below 15%) | GI% [4]: 18.89% | GI% [5]: 38.62% | GI% (MCF7 (breast cancer)): 34.47% | GI% [6]: 40.80% | GI% (SF-295 (CNS cancer)): — (— GI% is below 15%) | GI% (RPMI-8226 (leukemia)): — (— GI% is below 15%) | GI% (OVCAR-5 (ovarian cancer)): — (— GI% is below 15%) | GI% (IGROV1 (ovarian cancer)): — (— GI% is below 15%) | GI% (EKVX (NSC lung cancer)): 21.18% | GI% (TK-10 (renal cancer)): — (— GI% is below 15%) | GI% (786-0 (renal cancer)): 18.27% | GI% (CAKI-1 (renal cancer)): 32.25% | GI% (HCT-116 (colon cancer)): — (— GI% is below 15%) | GI% (A498 (renal cancer)): — (— GI% is below 15%) | GI% (OVCAR-8 (ovarian cancer)): 57.57% | GI% (OVCAR-4 (ovarian cancer)): 41.36% | GI% (HT29 (colon cancer)): — (— GI% is below 15%) | GI% (RXF 393 (renal cancer)): 15.29% | GI% (M14 (melanoma)): — (— GI% is below 15%) | GI% [7]: — (— GI% is below 15%) | GI% (SK-MEL-2 (melanoma)): — (— GI% is below 15%) | inhibition at 10 µM [8]: 17.7% | GI% (SF-539 (CNS cancer)): — (— GI% is below 15%) | GI% (SF-268 (CNS cancer)): 57.96% | GI% (KM12 (colon cancer)): 28.28% | GI% (COLO-205 (colon cancer)): — (— GI% is below 15%) | GI% (MDA-MB-435 (melanoma)): — (— GI% is below 15%) | GI% (T-47D (breast cancer)): 22.66% | GI% (HOP-62 (NSC lung cancer)): — (— GI% is below 15%) | GI% (HOP-92 (NSC lung cancer)): 29.78% | GI% [9]: — (— GI% is below 15%) | GI% [10]: 55.19% | GI% (U251 (CNS cancer)): 24.58% | GI% (PC-3 (prostate cancer)): 18.94% | GI% (UACC-62 (melanoma)): — (— GI% is below 15%) | GI% (HS 578T (breast cancer)): 33.19% | GI% (SW-620 (colon cancer)): — (— GI% is below 15%)
